Reference: paper PMC6892925, “Development of Novel Silyl Cyanocinnamic Acid Derivatives as Metabolic Plasticity Inhibitors for Cancer Treatment” (Scientific Reports, 2019)

What was measured:
[1] = system: MCF7 cell line; assay: MTT cell proliferation inhibition assay; settings: Homo sapiens, MCF7, read-out: MTT IC50
Description: Human triple-negative breast cancer MDA-MB-231 cells (ATCC) were grown in DMEM supplemented with 10% FBS (Atlanta Biologicals) and penicillin-streptomycin (50U/ml, 50 µg/ml, Invitrogen). Human colorectal adenocarcinoma WiDr cells (ATCC) were cultured in MEM medium supplemented with 10% FBS and penicillin-streptomycin. […] Murine metastatic breast cancer 4T1 cells were grown in RPMI-1640 supplemented with 10% FBS and penicillin-streptomycin. Human estrogen receptor positive breast cancer MCF7 cells (Masonic Cancer Center, University of Minnesota) were grown in MEM supplemented with 6% FBS, EGF (0.01 µg/ml), NEAA, HDC (1 µg/ml), insulin (10 µg/ml), HEPES (12 mM) and sodium pyruvate (1 mM).
Cell proliferation inhibition was evaluated using 3-(4,5-dimethylthiazol-2-yl)-2,5-diphenyl tetrazolium bromide (MTT) assay as reported previously[19].

[2] = biological target: T1, MCT1 (Rattus norvegicus, UniProt P53987); assay: MCT1 inhibition assay via L-[14C]-lactate uptake in RBE4 cells; assay type: cell-based; settings: L-[14C]-lactate uptake, MCT1 expressing RBE4 cell line; average ± SEM of three separate experiments; read-out: MCT1 IC50
T1 construct: using an L-[^14C]-lactate study on the MCT1 expressing RBE4 cell line; endogenous in cells; host or cells: RBE4 (rat brain endothelial 4) cells, a gift from F. Roux
T1 sequence (P53987 1-494): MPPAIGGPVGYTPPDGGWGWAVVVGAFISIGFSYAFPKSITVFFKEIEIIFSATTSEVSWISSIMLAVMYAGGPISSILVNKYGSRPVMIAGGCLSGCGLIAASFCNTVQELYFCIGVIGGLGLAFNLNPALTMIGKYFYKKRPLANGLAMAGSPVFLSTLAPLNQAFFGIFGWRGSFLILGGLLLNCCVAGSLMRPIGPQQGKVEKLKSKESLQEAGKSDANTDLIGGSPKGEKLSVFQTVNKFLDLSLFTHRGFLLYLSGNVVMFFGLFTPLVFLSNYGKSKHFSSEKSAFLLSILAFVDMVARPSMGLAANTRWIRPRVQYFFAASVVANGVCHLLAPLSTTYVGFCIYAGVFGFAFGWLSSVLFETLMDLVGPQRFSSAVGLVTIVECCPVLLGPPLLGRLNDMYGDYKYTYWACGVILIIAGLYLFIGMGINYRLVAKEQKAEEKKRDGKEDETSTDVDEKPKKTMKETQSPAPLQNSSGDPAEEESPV

[3] = system: MCT4 expressing MDA-MB-231 cell line; assay: Seahorse XFe96 glycolysis stress test (ECAR); assay type: cell-based, human; settings: 30 µM, MDA-MB-231, vs DMSO control
Description: (§1) Candidate compounds 2a and 2b were evaluated for their effect on glycolysis, glycolytic capacity and glycolytic reserve. This assay measures extracellular acidification rate (ECAR) which is directly correlated with the rate of glycolysis. The ECAR for both cell lines in the presence of the test compounds can be seen above (Fig. 4B,C). In this assay, cells were initially starved of glucose to reduce their ECAR. Upon addition of glucose, a rise in ECAR was observed proportional to the rate of glycolysis in each cell line. An increase in basal levels of glycolysis in cells treated with test compounds compared to the controls represents a shift toward dependency on glycolysis for ATP production. […] Glycolytic capacity is the maximum rate of glycolysis the cell can attain in the absence of OxPhos as an ATP source.
(§2) 20,000 cells/well were plated in 96-well Seahorse plates (Agilent, part no. 101085-004) and incubated 16–24 hours at 37 °C at 5% CO2. Flux pack sensors (Agilent, part no. 102416-100) were hydrated with XF calibrant solution (Agilent, part no. 100840-000) overnight at 37 °C in a non-CO2 incubator. The serum free assay media was prepared from Seahorse base medium (Agilent, part no. 102353-100) enriched with glutamine (1 mM) and sodium pyruvate (1 mM). The pH of the media was adjusted to 7.4. For glycolysis stress test the serum free assay media was used. For the mitochondrial stress test glucose (10 mM) was added to make an enriched serum free assay media. For both stress tests an 8X stock concentration of test compounds in their respective media was prepared for microplate injections in port A. Stock solutions of glucose (90 mM), oligomycin (10 μM), and 2-deoxyglucose (Chem Impex, 550 mM) were prepared such that their final working concentrations are 10 mM, 1 μM and 50 mM, respectively, for glycolysis stress test. For mitochondrial stress test, stock solutions of oligomycin (9 µM), FCCP (2.5–10 µM, cell line dependent), rotenone + antimycin A (5.5 µM) were prepared such that their final concentrations were 1 µM, 0.25–1 µM, and 0.5 µM, respectively in the enriched test media. Under glycolytic stress test, the cells were treated with test compounds, followed by the addition of glucose, oligomycin and 2-deoxyglucose at 14.29, 33.8, 53.35, 72.87 minutes, respectively. Under mitochondrial stress test, cells were treated with test compounds, followed by the addition of oligomycin, FCCP, and rotenone + antimycin A, at 14.29, 33.8, 53.35, 72.87 minutes, respectively. Extracellular acidification rates (ECAR) and oxygen consumption rates (OCR) were recorded in real-time for glycolysis and mitochondrial stress tests, respectively, using a Seahorse XFe96® analyzer (Agilent). The parameters related to glycolytic and mitochondrial functions were calculated utilizing the Wave 2.4.0 software (Agilent). ATP rate assay experiment was performed using manufactures (Agilent) protocol, and respective mitochondrial and glycolytic ATP rates were normalized to protein (BCA assay) and calculated using Wave 2.4.0 software.

[4] = system: MCT1 expressing WiDr cell line; assay: Seahorse XFe96 glycolysis stress test (ECAR); assay type: cell-based, human; settings: 30 µM, vs DMSO control
Description: as §1, §2

Row | Compound | IC50 [1] [µM] | IC50 [2] [nM] | basal glycolysis (ECAR) [3] | glycolytic capacity (ECAR) [3] | glycolytic reserve (ECAR) [3] | basal glycolysis (ECAR) [4] | glycolytic reserve (ECAR) [4]
1 | CC(C)(C)[Si](Oc1ccc(/C=C(\C#N)C(=O)O)cc1)(c1ccccc1)c1ccccc1 [2a] | 39 ± 3 | 408 ± 5 | significantly increased | significantly reduced | significant decrease | significantly increased | significant decrease
2 | CC(C)(C)[Si](OCCOc1ccc(/C=C(\C#N)C(=O)O)cc1)(c1ccccc1)c1ccccc1 [2b] | 35 ± 3 | 97 ± 7 | significantly increased | significantly reduced | significant decrease | significantly increased | significant decrease
